# Reference: ChEMBL document CHEMBL1201862, “PubChem BioAssay data set” (2004)
# Active and inactive are the calls of the source.
# Columns and labels:
# Cytochrome P450 2C9 = Cytochrome P450 2C9 (Homo sapiens, UniProt P11712)
# Cytochrome P450 3A4 = Cytochrome P450 3A4 (Homo sapiens, UniProt P08684);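 also: CYP3A4 tested as one member of a cytochrome P450 panel screen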
# Cytochrome P450 2D6 = Cytochrome P450 2D6 (Homo sapiens, UniProt P10635);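 also: CYP2D6 member of a cytochrome P450 panel assay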
# [1] = target: Peroxisome proliferator-activated receptor gamma/Nuclear receptor coactivator 3 (Homo sapiens, UniProt P37231); experiment: TR-FRET dose response biochemical High Throughput Screening assay for agonists of the steroid receptor coactivator 3 (SRC-3) recruitment by the peroxisome proliferator-activated receptor gamma (PPAR gamma): non-selective agonists. [Related pubchem assays: 1301 (Confirmation screen.), 1048 (Primary screen.)]; assay type: functional
# [2] = target: Peroxisome proliferator-activated receptor gamma/Nuclear receptor coactivator 1 (Homo sapiens, UniProt P37231); experiment: TR-FRET dose response biochemical High Throughput Screening assay for agonists of the steroid receptor coactivator 1 (SRC-1) recruitment by the peroxisome proliferator-activated receptor gamma (PPAR gamma): non-selective agonists. [Related pubchem assays (depositor defined):AID1300, AID1808, AID504735, AID631]; assay type: protein assay
# [3] = target: Peroxisome proliferator-activated receptor gamma/Nuclear receptor coactivator 2 (Homo sapiens, UniProt P37231); experiment: TR-FRET dose response biochemical High Throughput Screening assay for agonists of the steroid receptor coactivator 2 (SRC-2) recruitment by the peroxisome proliferator-activated receptor gamma (PPAR gamma): non-selective agonists. [Related pubchem assays: 1297, 1032 ]; assay type: functional
# Large T antigen = Large T antigen (Simian virus 40, UniProt P03070); assay type: functional, Betapolyomavirus macacae;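 also: Confirmatory-stage PubChem screen for compounds that inhibit SV40 T antigen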
# Vero = experiment: viability of Vero cells under compound – cytotoxicity control for flavivirus capping enzyme inhibitors (AID 588742); assay type: functional; conditions: Chlorocebus sabaeus
# [4] = luciferase reporter signal suppression in cells – H4 neuroglioma cells, luminescence, dose response (AID 1990); assay type: functional, cell-based
# HEK293 [5] = experiment: EBV LMP1 TES2 canonical NF-kB signalling blockers – cell-based, HEK293, luciferase, cherry-pick, dose response (AID 588343); assay type: functional; conditions: Homo sapiens
# [6] = toxicity toward HepG2 liver cells – cell-based, plate reader, cherry-pick, antagonist series, cytotoxicity control, dose response (AID 743416); assay type: functional
# [7] = blockade of melanocortin 4 receptor signaling – cell-based, plate reader, cherry pick, counter-screen for LGR2 antagonist project, dose response (AID 743444); assay type: functional;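 also: transfected HEK 293 cells stimulated with alpha-MSH peptide; potency of inhibitors of the alpha-MSH evoked signal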
# [8] = blockers of bursicon-stimulated LGR2 cAMP reporter – cell-based, HEK293, CRE-luciferase reporter, cherry pick, set 2, dose response (AID 743343); assay type: functional;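 also: transfected cells were stimulated with diluted bursicon conditioned medium after compound addition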
# [9] = Luminescence Cell-Based Dose Response HTS to Identify Inhibitors of 5'UTR Stem-Loop Driven Prion Protein mRNA Translation in H4 Neuroglioblastoma Cells. [Related pubchem assays: 1827 (Project Summary), 1813 (Primary HTS)]; assay type: functional
# [10] = A549 cell cytotoxicity, dose response, cytotoxicity control, plate reader, cherry-pick, antagonist series (AID 743412); assay type: functional, cell-based
# [11] = viability of uninfected HEp-2 cells – cell-based, HTS, cytotoxicity control for RSV inhibitor project, dose response (AID 2410); assay type: functional; conditions: human respiratory syncytial virus
# [12] = alpha-synuclein stem-loop luciferase translation blockers – H4 neuroglioma cells, luminescence, confirmation (AID 1988); assay type: functional, cell-based
# HEK293 [13] = experiment: membrane integrity loss in HEK cells – cell-based, fluorescence, cytotoxicity control for IDE activator project, dose response (AID 588440); assay type: functional; conditions: Homo sapiens;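 also: cytotoxicity by LDH release measuring loss of membrane integrity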
# HEK293 [14] = experiment: optical interference in Abeta FP readout, dose response, artefact control for IDE activator project, biochemical, fluorescence polarization (AID 588442); assay type: functional, cell-based; conditions: Homo sapiens
# Streptokinase A = target: T1, Streptokinase A (Streptococcus pyogenes serotype M1, UniProt P10520); experiment: viability-normalized secreted streptokinase activity reduction – plasminogen activation absorbance, OD405, dose response (AID 1914); assay type: functional, Streptococcus pyogenes M1 GAS;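 also: secreted streptokinase activity via plasminogen activation per viability signal from cell pellet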
# T1 sequence (P10520 whole entry): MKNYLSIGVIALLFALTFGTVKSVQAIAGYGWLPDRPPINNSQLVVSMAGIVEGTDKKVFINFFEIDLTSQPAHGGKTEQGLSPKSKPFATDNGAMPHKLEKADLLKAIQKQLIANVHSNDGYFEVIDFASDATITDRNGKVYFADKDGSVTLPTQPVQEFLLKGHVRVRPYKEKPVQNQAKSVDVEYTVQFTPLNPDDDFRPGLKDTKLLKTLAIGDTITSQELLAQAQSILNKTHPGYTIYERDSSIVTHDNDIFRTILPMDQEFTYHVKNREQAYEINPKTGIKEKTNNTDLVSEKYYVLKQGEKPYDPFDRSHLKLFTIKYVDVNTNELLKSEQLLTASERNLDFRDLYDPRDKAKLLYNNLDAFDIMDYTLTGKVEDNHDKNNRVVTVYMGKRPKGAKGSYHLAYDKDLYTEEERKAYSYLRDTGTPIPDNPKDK
# [15] = tested on: Streptococcus sp. 'group A'; experiment: Streptococcus pyogenes SK(-)GAS viability under kanamycin – luminescence, BacTiterGlo, confirmation, counter-screen for streptokinase expression inhibitor project, dose response (AID 1900); assay type: functional, organism-based
# Streptococcus = experiment: GAS UMAA2166 growth inhibition – luminescence, BacTiterGlo, counter-screen for streptokinase expression inhibitor project, dose response (AID 1915); assay type: functional, organism-based;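 also: potency for reduction of bacterial viability or growth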
# [16] = target: T2, Endoribonuclease toxin MazF (Escherichia coli K-12, UniProt P0AE70); experiment: activation of MazEF endoribonuclease cleavage – biochemical, fluorescence, single-stranded RNA substrate, uHTS hits, dose response (AID 588481); assay type: functional
# T2 sequence (P0AE70 whole entry): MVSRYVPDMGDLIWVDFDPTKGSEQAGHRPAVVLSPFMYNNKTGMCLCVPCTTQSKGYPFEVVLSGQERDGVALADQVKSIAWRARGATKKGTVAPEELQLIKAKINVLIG
# [17] = target: T2, Endoribonuclease toxin MazF; experiment: substrate-only fluorescence increase artefacts – biochemical, single-stranded RNase substrate, counter-screen for MazEF activator project, dose response (AID 588502); assay type: functional
# [18] = target: Dual specificity tyrosine-phosphorylation-regulated kinase 1A (Rattus norvegicus, UniProt Q63470); assay type: biochemical, Homo sapiens
# cells = assay type: functional
# Insulin-degrading enzyme [19] = target: T3, Insulin-degrading enzyme (Homo sapiens, UniProt P14735); experiment: recombinant IDE activation, cell-free – biochemical, fluorescence polarization, counter-screen for IDE activator project, dose response (AID 588681)
# T3 sequence (P14735 whole entry): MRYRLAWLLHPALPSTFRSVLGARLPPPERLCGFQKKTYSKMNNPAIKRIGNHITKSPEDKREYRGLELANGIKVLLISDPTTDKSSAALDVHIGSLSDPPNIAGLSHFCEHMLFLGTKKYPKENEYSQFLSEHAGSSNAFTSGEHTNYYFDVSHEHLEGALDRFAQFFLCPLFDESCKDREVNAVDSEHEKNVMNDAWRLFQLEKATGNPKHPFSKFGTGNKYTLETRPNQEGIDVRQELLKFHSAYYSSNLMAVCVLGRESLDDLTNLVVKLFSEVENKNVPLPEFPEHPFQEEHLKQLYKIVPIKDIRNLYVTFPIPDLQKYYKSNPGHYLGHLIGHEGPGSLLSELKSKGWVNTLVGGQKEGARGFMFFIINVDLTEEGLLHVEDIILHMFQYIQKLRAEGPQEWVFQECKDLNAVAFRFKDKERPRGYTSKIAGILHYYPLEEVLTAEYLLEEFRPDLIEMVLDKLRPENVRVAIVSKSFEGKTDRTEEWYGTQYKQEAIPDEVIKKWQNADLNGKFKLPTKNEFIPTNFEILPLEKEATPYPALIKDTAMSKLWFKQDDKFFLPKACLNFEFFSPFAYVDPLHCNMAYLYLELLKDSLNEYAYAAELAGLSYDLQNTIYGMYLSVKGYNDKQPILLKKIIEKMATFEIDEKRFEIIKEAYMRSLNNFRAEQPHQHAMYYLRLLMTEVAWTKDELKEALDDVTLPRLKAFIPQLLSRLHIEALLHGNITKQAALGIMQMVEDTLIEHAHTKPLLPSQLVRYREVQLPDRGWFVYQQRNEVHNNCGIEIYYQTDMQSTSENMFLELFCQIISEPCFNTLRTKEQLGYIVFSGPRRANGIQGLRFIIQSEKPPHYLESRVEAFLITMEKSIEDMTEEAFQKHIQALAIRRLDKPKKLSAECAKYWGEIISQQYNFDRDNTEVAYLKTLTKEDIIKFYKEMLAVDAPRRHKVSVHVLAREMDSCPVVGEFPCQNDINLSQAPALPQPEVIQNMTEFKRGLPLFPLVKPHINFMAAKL
# Insulin-degrading enzyme [20] = target: T3, Insulin-degrading enzyme; experiment: cellular IDE activation of Abeta substrate cleavage – fluorescence polarization, HEK cells, dose response (AID 588439); assay type: functional, cell-based
# [21] = target: T4, Voltage-gated N-type calcium channel alpha-1B subunit/Amyloid beta A4 precursor protein-binding family A member 1 (Homo sapiens, UniProt Q00975+Q02410); assay type: protein assay
# [22] = target: T5, Carboxy-terminal domain RNA polymerase II polypeptide A small phosphatase 1 (Homo sapiens, UniProt Q9GZU7); experiment: CTDSP1 inhibitors, concentration-response, biochemical, absorbance readout, ultra-high-throughput screen actives (AID 540297); assay type: functional
# T5 sequence (Q9GZU7 whole entry): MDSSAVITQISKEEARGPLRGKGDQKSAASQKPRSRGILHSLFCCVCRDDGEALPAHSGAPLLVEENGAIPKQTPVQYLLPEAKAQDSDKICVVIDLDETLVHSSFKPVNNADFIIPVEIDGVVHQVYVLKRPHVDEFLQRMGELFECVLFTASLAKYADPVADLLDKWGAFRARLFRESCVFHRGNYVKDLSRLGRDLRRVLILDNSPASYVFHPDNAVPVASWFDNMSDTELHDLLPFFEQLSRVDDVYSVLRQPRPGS
# [23] = target: T4, Voltage-gated N-type calcium channel alpha-1B subunit/Amyloid beta A4 precursor protein-binding family A member 1; assay type: protein assay; remark: listed apart in the source
# Chain of Cytochrome P450 2D6 (P10635 whole entry): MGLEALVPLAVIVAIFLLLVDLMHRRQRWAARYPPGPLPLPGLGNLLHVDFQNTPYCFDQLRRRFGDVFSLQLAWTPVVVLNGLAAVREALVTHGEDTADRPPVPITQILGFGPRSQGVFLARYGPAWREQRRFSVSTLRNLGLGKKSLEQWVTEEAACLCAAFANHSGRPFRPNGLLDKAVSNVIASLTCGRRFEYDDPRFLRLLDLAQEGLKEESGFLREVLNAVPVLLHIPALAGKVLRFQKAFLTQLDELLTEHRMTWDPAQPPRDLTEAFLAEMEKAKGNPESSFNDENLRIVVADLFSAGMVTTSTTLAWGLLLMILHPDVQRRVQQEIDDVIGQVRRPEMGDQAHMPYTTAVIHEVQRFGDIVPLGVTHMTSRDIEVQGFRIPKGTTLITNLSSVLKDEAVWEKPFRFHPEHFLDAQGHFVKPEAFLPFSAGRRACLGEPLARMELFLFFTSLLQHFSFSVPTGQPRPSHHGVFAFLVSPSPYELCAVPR
# Chain of Peroxisome proliferator-activated receptor gamma/Nuclear receptor coactivator 1 (P37231 whole entry): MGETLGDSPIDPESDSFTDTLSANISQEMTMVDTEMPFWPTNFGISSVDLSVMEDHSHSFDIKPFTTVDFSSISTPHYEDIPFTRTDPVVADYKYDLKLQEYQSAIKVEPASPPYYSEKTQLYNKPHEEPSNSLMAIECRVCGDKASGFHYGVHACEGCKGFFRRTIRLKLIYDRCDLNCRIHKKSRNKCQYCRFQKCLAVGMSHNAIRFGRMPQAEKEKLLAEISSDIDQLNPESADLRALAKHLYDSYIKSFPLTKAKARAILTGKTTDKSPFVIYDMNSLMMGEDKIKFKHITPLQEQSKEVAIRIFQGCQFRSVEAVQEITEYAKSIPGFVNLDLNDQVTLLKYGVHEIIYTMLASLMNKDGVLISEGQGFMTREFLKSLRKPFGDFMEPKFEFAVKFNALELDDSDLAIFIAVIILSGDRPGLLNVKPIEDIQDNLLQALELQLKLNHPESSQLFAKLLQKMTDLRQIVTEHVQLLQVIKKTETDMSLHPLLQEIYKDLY
# Chain of Peroxisome proliferator-activated receptor gamma/Nuclear receptor coactivator 1 (Q15788 whole entry, further chain): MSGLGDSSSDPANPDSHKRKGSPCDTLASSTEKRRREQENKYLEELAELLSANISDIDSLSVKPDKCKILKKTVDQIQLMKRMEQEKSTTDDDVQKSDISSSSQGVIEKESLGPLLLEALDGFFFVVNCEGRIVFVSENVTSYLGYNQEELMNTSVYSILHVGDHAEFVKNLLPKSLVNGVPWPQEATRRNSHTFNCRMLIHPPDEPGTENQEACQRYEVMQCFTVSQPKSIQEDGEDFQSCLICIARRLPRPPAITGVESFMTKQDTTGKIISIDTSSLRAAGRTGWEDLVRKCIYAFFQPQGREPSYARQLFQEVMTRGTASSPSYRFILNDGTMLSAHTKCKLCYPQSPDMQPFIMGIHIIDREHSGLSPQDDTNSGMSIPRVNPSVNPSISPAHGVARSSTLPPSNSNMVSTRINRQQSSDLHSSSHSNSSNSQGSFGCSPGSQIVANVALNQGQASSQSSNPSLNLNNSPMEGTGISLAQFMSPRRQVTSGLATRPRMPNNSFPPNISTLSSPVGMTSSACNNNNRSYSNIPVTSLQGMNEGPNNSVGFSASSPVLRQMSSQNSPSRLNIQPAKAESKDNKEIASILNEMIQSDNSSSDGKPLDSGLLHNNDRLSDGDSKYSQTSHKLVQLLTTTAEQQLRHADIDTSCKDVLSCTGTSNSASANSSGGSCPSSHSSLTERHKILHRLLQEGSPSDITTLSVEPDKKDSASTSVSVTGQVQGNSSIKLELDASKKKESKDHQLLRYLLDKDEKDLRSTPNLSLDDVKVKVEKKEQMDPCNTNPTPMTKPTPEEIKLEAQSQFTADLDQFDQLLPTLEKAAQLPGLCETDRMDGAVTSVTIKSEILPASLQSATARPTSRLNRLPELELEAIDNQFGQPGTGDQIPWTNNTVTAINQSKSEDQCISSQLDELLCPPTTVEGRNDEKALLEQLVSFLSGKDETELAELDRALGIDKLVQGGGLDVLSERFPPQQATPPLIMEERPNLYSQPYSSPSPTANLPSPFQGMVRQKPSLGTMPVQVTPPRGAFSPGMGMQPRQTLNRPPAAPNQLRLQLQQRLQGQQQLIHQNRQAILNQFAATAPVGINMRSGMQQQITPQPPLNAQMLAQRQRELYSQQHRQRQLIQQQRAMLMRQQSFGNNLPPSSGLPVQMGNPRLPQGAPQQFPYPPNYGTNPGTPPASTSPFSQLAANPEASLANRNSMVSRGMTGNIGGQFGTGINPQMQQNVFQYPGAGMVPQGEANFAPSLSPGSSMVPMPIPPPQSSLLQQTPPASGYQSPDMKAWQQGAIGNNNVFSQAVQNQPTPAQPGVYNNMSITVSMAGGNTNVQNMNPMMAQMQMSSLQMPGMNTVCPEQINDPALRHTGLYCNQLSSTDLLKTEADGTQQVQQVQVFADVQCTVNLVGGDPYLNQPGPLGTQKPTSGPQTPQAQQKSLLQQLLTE
# Chain of Peroxisome proliferator-activated receptor gamma/Nuclear receptor coactivator 3 (P37231 whole entry): as the sequence (P37231 whole entry) above
# Chain of Peroxisome proliferator-activated receptor gamma/Nuclear receptor coactivator 3 (Q9Y6Q9 whole entry, further chain): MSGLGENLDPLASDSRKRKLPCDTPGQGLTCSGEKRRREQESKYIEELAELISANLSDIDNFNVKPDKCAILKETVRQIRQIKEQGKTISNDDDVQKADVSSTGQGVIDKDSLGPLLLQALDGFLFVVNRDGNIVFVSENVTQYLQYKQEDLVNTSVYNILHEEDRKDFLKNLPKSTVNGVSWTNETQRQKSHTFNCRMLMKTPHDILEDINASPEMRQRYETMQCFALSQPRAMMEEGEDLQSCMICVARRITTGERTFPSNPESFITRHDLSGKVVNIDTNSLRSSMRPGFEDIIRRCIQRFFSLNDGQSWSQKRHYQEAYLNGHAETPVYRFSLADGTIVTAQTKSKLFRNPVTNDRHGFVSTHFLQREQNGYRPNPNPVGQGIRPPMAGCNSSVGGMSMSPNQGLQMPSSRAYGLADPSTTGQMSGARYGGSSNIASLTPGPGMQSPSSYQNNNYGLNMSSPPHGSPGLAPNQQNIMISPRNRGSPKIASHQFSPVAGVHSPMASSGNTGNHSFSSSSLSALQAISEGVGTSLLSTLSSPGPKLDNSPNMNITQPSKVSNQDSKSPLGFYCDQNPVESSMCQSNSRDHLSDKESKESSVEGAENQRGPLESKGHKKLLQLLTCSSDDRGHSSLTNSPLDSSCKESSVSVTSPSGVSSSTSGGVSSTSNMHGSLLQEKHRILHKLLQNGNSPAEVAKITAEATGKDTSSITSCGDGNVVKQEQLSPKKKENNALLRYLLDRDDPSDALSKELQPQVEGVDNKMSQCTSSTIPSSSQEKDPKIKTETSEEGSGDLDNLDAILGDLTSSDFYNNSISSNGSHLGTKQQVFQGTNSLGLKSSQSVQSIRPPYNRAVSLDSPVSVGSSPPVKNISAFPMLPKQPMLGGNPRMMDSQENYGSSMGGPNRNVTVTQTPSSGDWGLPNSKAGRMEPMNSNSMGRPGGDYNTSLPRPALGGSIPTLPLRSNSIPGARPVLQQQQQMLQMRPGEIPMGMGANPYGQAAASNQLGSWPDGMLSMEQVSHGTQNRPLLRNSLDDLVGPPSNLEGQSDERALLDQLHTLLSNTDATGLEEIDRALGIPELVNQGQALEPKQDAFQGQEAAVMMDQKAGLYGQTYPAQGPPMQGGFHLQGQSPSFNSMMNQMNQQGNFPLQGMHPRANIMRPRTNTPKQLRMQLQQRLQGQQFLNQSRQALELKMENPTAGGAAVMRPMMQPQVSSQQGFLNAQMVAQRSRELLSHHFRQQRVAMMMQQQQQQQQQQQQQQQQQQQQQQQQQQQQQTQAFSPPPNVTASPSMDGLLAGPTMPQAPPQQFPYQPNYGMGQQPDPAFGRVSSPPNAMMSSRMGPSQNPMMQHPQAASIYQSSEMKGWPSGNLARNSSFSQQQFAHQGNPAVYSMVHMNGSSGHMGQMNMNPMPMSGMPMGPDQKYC
# Chain of Cytochrome P450 3A4 (P08684 whole entry): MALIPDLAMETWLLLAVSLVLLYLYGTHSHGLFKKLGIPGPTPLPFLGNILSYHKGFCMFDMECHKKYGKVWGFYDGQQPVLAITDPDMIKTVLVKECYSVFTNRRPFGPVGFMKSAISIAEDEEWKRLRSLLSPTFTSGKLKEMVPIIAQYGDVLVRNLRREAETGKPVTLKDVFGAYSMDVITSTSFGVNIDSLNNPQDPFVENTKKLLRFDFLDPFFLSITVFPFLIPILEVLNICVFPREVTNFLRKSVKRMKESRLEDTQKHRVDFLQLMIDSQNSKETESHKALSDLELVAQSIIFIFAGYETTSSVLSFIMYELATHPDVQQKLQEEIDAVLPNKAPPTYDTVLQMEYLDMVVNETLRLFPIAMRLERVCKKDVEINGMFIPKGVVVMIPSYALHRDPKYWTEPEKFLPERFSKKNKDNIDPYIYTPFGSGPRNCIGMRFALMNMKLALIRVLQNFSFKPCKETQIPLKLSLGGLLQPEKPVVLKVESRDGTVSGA
smiles,measurement,setting,value
O=C(NCc1ccccn1)c1cc(-c2ccccc2Cl)on1,AC50,Cytochrome P450 2C9,inconclusive
same,AC50,Cytochrome P450 3A4,15.8 µM (inconclusive)
same,AC50,Cytochrome P450 2D6,inconclusive
CCOC(=O)N1CCC(NC(=O)CSc2cc(=O)n(C)c3ccccc23)CC1,EC50,[1],> 79.4 µM (not active)
same,EC50,[2],> 79.4 µM (inactive)
same,EC50,[3],> 79.4 µM (not active)
Oc1ccc(NCc2cccs2)cc1,IC50,Large T antigen,28.7 µM (active)
same,CC50,Vero,> 40 µM (active)
COc1ccc(NC(=O)N2CC[C@@]3(CCCN(C(=O)c4cnccn4)C3)C2)cc1,AC50,Cytochrome P450 3A4,3.16 µM (inconclusive)
same,AC50,Cytochrome P450 2D6,inconclusive
c1ccc(-n2nnc3c(N4CCOCC4)ncnc32)cc1,EC50,[4],6.29 µM (inconclusive)
same,AC50,HEK293 [5],2.47 µM (active)
same,AC50,[6],> 52 µM (inactive)
same,AC50,[7],8.39 µM (active)
same,AC50,[8],7.67 µM (active)
same,EC50,[9],8.24 µM (active)
same,AC50,[10],> 52 µM (inactive)
same,CC50,[11],23.6 µM (active)
same,EC50,[12],7.18 µM (inconclusive)
Cc1[nH]c(O)nc1C(=O)CCCCC(=O)O,IC50,HEK293 [13],> 89.3 µM (inactive)
same,EC50,HEK293 [14],22.6 µM (inactive)
Cc1ccc(/C=C/C(=O)C2C(=O)c3ccccc3C2=O)cc1,EC50,Streptokinase A,> 150 µM (not active)
same,EC50,[15],1.95 µM (active)
same,AC50,HEK293 [5],4.18 µM (active)
same,EC50,Streptococcus,9.64 µM (active)
COC(=O)CSc1nc2cc(C)ccc2cc1C#N,EC50,[16],> 99 µM (inactive)
same,EC50,[17],> 99 µM (inactive)
Nc1c(C(=O)NC2CCCC2)sc2nc(-c3cccs3)ccc12,EC50,[16],> 99 µM (inactive)
same,EC50,[17],54 µM (inactive)
COc1ccccc1NC(=O)CC(c1ccc(OC(C)C)cc1)c1ccccc1OC (stereo not drawn),AC50,HEK293 [5],194 µM (active)
CCCC1O[C@@H]2CC3C4CCC5=CC(=O)C=C[C@]5(C)C4C(OC(C)=O)C[C@]3(C)[C@]2(C(=O)COC(C)=O)O1 (stereo partly drawn),EC50,[1],4.66 µM (active)
same,EC50,[4],22.1 µM (active)
same,EC50,[2],6.65 µM (active)
same,EC50,[3],8.71 µM (active)
same,EC50,[9],> 120 µM (not active)
same,EC50,[12],18.8 µM (active)
O=C1NC(=O)N(c2ccccc2)C(=O)/C1=C/c1c(-c2ccccc2)[nH]c2ccccc12,AC50,[18],2.65 µM (active)
CCCCn1c(O)c(N=Nc2ccccc2O)c2ccccc21,EC50,[16],44.9 µM (inactive)
same,EC50,[17],69.5 µM (inactive)
Cn1c(=O)cc(SCC(=O)N2CCN(Cc3ccc4c(c3)OCO4)CC2)c2ccccc21,EC50,[1],> 79.4 µM (not active)
same,EC50,[2],> 79.4 µM (inactive)
same,EC50,[3],> 79.4 µM (not active)
CC(=O)n1cc(/C=C2/N=C(c3ccccc3)OC2=O)c2ccccc21,EC50,[16],> 99 µM (inactive)
same,IC50,cells,4.63 µM (active)
same,EC50,[17],> 99 µM (inactive)
O=C1C=C(c2cccc3c2sc2ccccc23)C[C@@H](c2ccc(Cl)cc2)C1,EC50,Insulin-degrading enzyme [19],> 54.7 µM (inactive)
same,IC50,HEK293 [13],> 89.2 µM (inactive)
same,EC50,HEK293 [14],> 54.7 µM (inactive)
same,EC50,Insulin-degrading enzyme [20],> 54.7 µM (inactive)
O=C(O)CCC(=O)c1ccc2ccc3cccc4ccc1c2c34,AC50,Cytochrome P450 2D6,inconclusive
COc1ccc([C@@H]2CC(=O)c3c(O)cc(O[C@@H]4O[C@H](CO[C@@H]5O[C@@H](C)[C@H](O)[C@@H](O)[C@H]5O)[C@@H](O)[C@H](O)[C@H]4O)cc3O2)cc1O [HESPERIDIN],IC50,[21],9.5 µM (active)
same,IC50,[22],20.7 µM (active)
same,IC50,[23],> 50 µM (inactive)
